Test results as given in patent US8476448B2, “Solid form of 4-[[(6-chloropyridin-3-yl)methyl](2,2-difluoroethyl)amino]furan-2(5H)-one” (Bayer Cropscience AG, priority 2009, dated 2013).

Assay: Stability of the novel solid form on prolonged storage
Assay type: physicochemical

SMILES: O=C1C=C(N(Cc2ccc(Cl)nc2)CC(F)F)CO1 [novel solid form, 4-[[(6-chloropyridin-3-yl)methyl](2,2-difluoroethyl)amino]furan-2(5H)-one]
- thermodynamic stability / conversion into another form: not converted into another form
